Reference: patent publication US20250289788A1, “HALOALKYL SULFONANILIDE COMPOUND AND HERBICIDE CONTAINING THE SAME” (SDS BIOTECH K.K., priority 2022, published 2025)

Legend:
Type in all cases: in vivo
[1] = test system: Ammannia multiflora (AM); test: Comparative Example: herbicidal efficacy test of treatment during growth stage under flooding conditions; conditions: treatment during growth stage (14 days after sowing), day 21 after treatment
Excerpt: (§1) The control compound a is described as Compound No. III-1 on page 245 of PLT 5, and the control compound b is described as Compound No. III-9 on page 245 of PTL 5. […] As an example, herbicidal efficacy against critical paddy field weeds such as Monochoria vaginalis (MV) and Ammannia multiflora (AM) as well as Oryza sativa (OS) chemical damage were compared and are specifically described below as a Comparative Example.
(§2) [Comparative Example] Herbicidal Efficacy Test of Treatment During Growth Stage […] Under Flooding Conditions
(§3) After each 40-cm^2 plastic cup was loaded with puddled paddy field soil, seeds of each of Monochoria vaginalis (MV) or Ammannia multiflora (AM) were sown and grown in a greenhouse. After plants were grown for 14 days, one rice plant (variety: Nippon-bare) at the 2-leaf stage was transplanted at a transplanting depth of 1 cm. Water was flooded to a depth of 3 cm, and wettable powder containing the present invention compound, which had been adjusted according to Formulation Example 1, or each control compound was diluted with distilled water and applied dropwise to the water surface. The amount applied was 125, 63, or 31 g of active ingredient per hectare. The test was conducted in two series. On day 21 after treatment, the herbicidal efficacy and chemical damage were examined according to the following criteria.
(§4) 9-10 . . . Herbicidal activity “Maximum”, 90% or higher herbicidal efficacy or chemical damage
(§5) 7 to 8 . . . Herbicidal activity “high”, 70% or higher and less than 90% herbicidal efficacy or chemical damage
(§6) 5 to 6 . . . Herbicidal activity “medium”, 50% or higher and less than 70% herbicidal efficacy or chemical damage
(§7) 0 to 4 . . . Herbicidal activity “none to low”, 0% or higher and less than 50% herbicidal efficacy or chemical damage

[2] = test system: Monochoria vaginalis (MV); test: as above; conditions: treatment during growth stage (14 days after sowing), day 21 after treatment
Excerpt: as §1, §2, §3, §4, §5, §6, §7

[3] = test system: Oryza sativa (OS); test: Comparative Example: chemical damage to transplanted rice under flooding conditions; conditions: applied dropwise to water surface, day 21 after treatment
Excerpt: as §1, §2, §3, §4, §5, §6, §7

[4] = test system: Schoenoplectiella juncoides (SJ); test: Test Example 1: herbicidal effect test using paddy field flooding treatment; conditions: dose 16 g a.i./ha, water surface application, 21 days after treatment
Procedure: (§8) <Test Example 1> Herbicidal Effect Test Using Paddy Field Flooding Treatment
(§9) After each 40-cm^2 plastic cup was loaded with puddled paddy field soil, seeds of each of the following species were sown and grown in a greenhouse: Echinochloa crus-galli var. oryzicola (EC), Schoenoplectiella juncoides (SJ), Monochoria vaginalis (MV), or Ammannia multiflora (AM). After plants were grown for 14 days, water was flooded to a depth of 3 cm, and a 10% wettable powder, which had been adjusted according to Formulation Example 1, was diluted with distilled water and applied dropwise to the water surface. The amount applied was 1000, 500, 250, 125, 63, 31, or 16 g of active ingredient per hectare. The test was conducted in two series. Herbicidal efficacy (degree (%) of suppression of growth of terrestrial part: 100 (complete death) to 0 (no action)) was investigated at 21 days after the treatment.

[5] = test system: Echinochloa crus-galli var. oryzicola (EC); test: as above; conditions: dose 1000 g a.i./ha, water surface application, 21 days after treatment
Procedure: as §8, §9

| SMILES | herbicidal efficacy AM (score 0-10) ([1]; 31 g a.i./ha) | herbicidal efficacy AM (score 0-10) ([1]; 63 g a.i./ha) | herbicidal efficacy AM (score 0-10) ([1]; 125 g a.i./ha) | herbicidal efficacy MV (score 0-10) ([2]; 31 g a.i./ha) | herbicidal efficacy MV (score 0-10) ([2]; 63 g a.i./ha) | herbicidal efficacy MV (score 0-10) ([2]; 125 g a.i./ha) | chemical damage to transplanted rice OS (score 0-10) ([3]; 31 g a.i./ha) | chemical damage to transplanted rice OS (score 0-10) ([3]; 63 g a.i./ha) | chemical damage to transplanted rice OS (score 0-10) ([3]; 125 g a.i./ha) | herbicidal efficacy (degree (%) of suppression of growth of terrestrial part) [4] | herbicidal efficacy (degree (%) of suppression of growth of terrestrial part) [5] |
| --- | --- | --- | --- | --- | --- | --- | --- | --- | --- | --- | --- |
| O=C1c2ccccc2CCN1Cc1ccccc1NS(=O)(=O)C(F)(F)F [Compound 3-1] | 10 | 10 | 10 | 10 | 10 | 10 | 0 | 0 | 0 |  |  |
| CC=CC(=O)N(c1ccccc1CN1CCc2c(F)ccc(F)c2C1=O)S(=O)(=O)C(F)(F)F [Compound 3-116] |  |  |  |  |  |  |  |  |  | ≥ 80% |  |
| CCOC(=O)N(c1ccccc1CN1CCc2ccccc2C1=O)S(=O)(=O)C(F)(F)F [Compound 3-139] | 10 | 10 | 10 | 7 | 10 | 10 | 0 | 0 | 0 |  |  |
| O=C1Cc2cc(F)ccc2N1Cc1ccccc1NS(=O)(=O)C(F)(F)F [Compound 8-2] |  |  |  |  |  |  |  |  |  |  | ≥ 80% |
| O=C1CCCCN1Cc1ccccc1NS(=O)(=O)C(F)(F)F [Compound a] | 10 | 10 | 10 | 10 | 10 | 10 | 6 | 10 | 10 |  |  |
| CCOC(=O)N(c1ccccc1CN1CCCCC1=O)S(=O)(=O)C(F)(F)F [Compound b] | 10 | 10 | 10 | 7 | 10 | 10 | 3 | 8 | 10 |  |  |
